Assay [1] deals with T1, human PTEFb (CDK9/Cyclin T1) (Homo sapiens, UniProt P50750).
T1 construct: purchased ProQinase, Freiburg, Germany
In words: Surface Plasmon Resonance PTEFb. The class given is binding. The note with it: SPR, 37° C. From the text:
8. Surface Plasmon Resonance PTEFb
The term “surface plasmon resonance”, as used herein, refers to an optical phenomenon that allows for the analysis of the reversible associations of biological molecules in real time within a biosensor matrix, for example using the Biacore® system (GE Healthcare Biosciences, Uppsala, Sweden). Biacore® uses the optical properties of surface plasmon resonance (SPR) to detect alterations in the refractive index of a buffer, which changes as molecules in solution interact with the target immobilized on the surface. In brief, proteins are covalently bound to the dextran matrix at a known concentration and a ligand for the protein is injected through the dextran matrix. Near infrared light, directed onto the opposite side of the sensor chip surface is reflected and also induces an evanescent wave in the gold film, which in turn, causes an intensity dip in the reflected light at a particular angle known as the resonance angle. If the refractive index of the sensor chip surface is altered (e.g. by compound binding to the bound protein) a shift occurs in the resonance angle. This angle shift can be measured.
The term “KD”, as used herein, is intended to refer to the equilibrium dissociation constant of a particular compound/target protein complex.
The term “koff”, as used herein, is intended to refer to the off-rate, i.e. the dissociation rate constant of a particular compound/target protein complex.
The term “target residence time”, as used herein, is intended to refer to the inverse of the rate of dissociation rate constant (1/koff) of a particular compound/target protein complex.
The ability of the compounds according to the invention to bind human PTEFb may be determined using surface plasmon resonance (SPR). KD values and koff values may be measured using a Biacore® T200 instrument (GE Healthcare, Uppsala, Sweden).
For SPR measurements, recombinant human PTEFb (CDK9/Cyclin T1 recombinant human active protein kinase purchased from ProQinase, Freiburg, Germany) is immobilized using standard amine coupling (Johnsson B et al, Anal Biochem. 1991 Nov. 1; 198(2):268-77). Briefly, carboxymethylated dextran biosensor chips (CM7, GE Healthcare) are activated with N-ethyl-N′-(3-dimethylaminopropyl)-carbodiimide hydrochloride (EDC) and N-hydroxysuccinimide (NHS) according to the supplier's instructions. Human PTEFb is diluted in 1×HBS-EP+ (GE Healthcare) and injected on the activated chip surface. Subsequently, a 1:1 solution of 1 M ethanolamine-HCl (GE Healthcare) and 1×HBS-EP is injected to block unreacted groups, resulting in approximately 4000 response units (RU) of immobilized protein. A reference surface is generated by treatment with NHS-EDC and ethanolamine-HCl. Compounds are dissolved in 100% dimethylsulfoxide (DMSO, Sigma-Aldrich, Germany) to a concentration of 10 mM and subsequently diluted in running buffer (1×HBS-EP+pH 7.4 [generated from HBS-EP+ Buffer 10× (GE Healthcare): 0.1 M HEPES, 1.5 M NaCl, 30 mM EDTA and 0.5% v/v Surfactant P20], 1% v/v DMSO). For kinetic measurements, serial dilutions of compound (0.78 nM up to 25 nM) are injected over immobilized protein. Binding kinetics is measured at 37° C. with a flow rate of 100 μl/min in running buffer. Compound concentrations are injected for 70 s followed by a dissociation time of 1100 s. The resulting sensorgrams are double-referenced against the reference surface as well as against blank injections.
The double-referenced sensorgrams are fit to a simple reversible Langmuir 1:1 reaction mechanism as implemented in the Biacore® T200 evaluation software 2.0 (GE Healthcare). In cases were full compound dissociation has not occurred at the end of the dissociation phase, the Rmax parameter (response at saturation) is fit as local variable. In all other cases, Rmax is fit as global variable.

In a further assay the test system is HeLa-MaTu-ADR cells. In words: Proliferation assay, HeLa-MaTu-ADR. The class given is cell-based. The note with it: Homo sapiens, 96 h; 4 days, crystal violet; read-out: Inhibition of HeLa-MaTu-ADR cell proliferation IC50. The protocol:
Cultivated tumour cells (HeLa, human cervical tumour cells, ATCC CCL-2; NCI-H460, human non-small cell lung carcinoma cells, ATCC HTB-177; DU 145, hormone-independent human prostate carcinoma cells, ATCC HTB-81; HeLa-MaTu-ADR, multidrug-resistant human cervical carcinoma cells, EPO-GmbH Berlin; Caco-2, human colorectal carcinoma cells, ATCC HTB-37; B16F10, mouse melanoma cells, ATCC CRL-6475) were plated at a density of 5,000 cells/well (DU145, HeLa-MaTu-ADR), 3,000 cells/well (NCI-H460, HeLa), 1,500 cells/well (Caco-2), or 1,000 cells/well (B16F10) in a 96-well multititer plate in 200 μL of their respective growth medium supplemented 10% fetal calf serum. After 24 hours, the cells of one plate (zero-point plate) were stained with crystal violet (see below), while the medium of the other plates was supplemented with the test substances in various concentrations (0 μM, as well as in the range of 0.0001-10 μM; the final concentration of the solvent dimethyl sulfoxide was adjusted to 0.1%) using a Hewlett-Packard HP D300 Digital Dispenser. The cells were incubated for 4 days in the presence of test substances. Cell proliferation was determined by staining the cells with crystal violet: the cells were fixed by adding 20 μl/measuring point of an 11% glutaric aldehyde solution for 15 minutes at room temperature. After three washing cycles of the fixed cells with water, the plates were dried at room temperature. The cells were stained by adding 100 μl/measuring point of a 0.1% crystal violet solution (pH 3.0). After three washing cycles of the stained cells with water, the plates were dried at room temperature. The dye was dissolved by adding 100 μl/measuring point of a 10% acetic acid solution. The extinction was determined by photometry at a wavelength of 595 nm. The change of cell number, in percent, was calculated by normalization of the measured values to the extinction values of the zero-point plate (=0%) and the extinction of the untreated ([…]) cells (=100%). The IC50 values (inhibitory concentration at 50% of maximal effect) were determined by means of a 4 parameter fit. A2780 human ovarian carcinoma cells (ECACC #93112519) and non-adherent MOLM-13 human acute myeloid leukemia cells (DSMZ ACC 554) were seeded at a density of 3,000 cell/well (A2780) or 5,000 cells/well (MOLM-13) in a 96-well multititer plate in 150 μL of growth medium supplemented 10% fetal calf serum. After 24 hours, cell viability of one plate (zero-point plate) was determined with the Cell Titre-Glo Luminescent Cell Viability Assay (Promega), while the medium of the other plates was supplemented with the test substances in various concentrations (0 μM, as well as in the range of 0.0001-10 μM; the final concentration of the solvent dimethyl sulfoxide was adjusted to 0.1%) using a Hewlett-Packard HP D300 Digital Dispenser. Cell viability was assessed after 72-hour exposure with the Cell Titre-Glo Luminescent Cell Viability Assay (Promega). IC50 values (inhibitory concentration at 50% of maximal effect) were determined by means of a 4 parameter fit on measurement data which were normalized to vehicle (DMSO) treated cells (=100%) and measurement readings taken immediately before compound exposure (=0%).

T1 sequence (P50750 whole entry): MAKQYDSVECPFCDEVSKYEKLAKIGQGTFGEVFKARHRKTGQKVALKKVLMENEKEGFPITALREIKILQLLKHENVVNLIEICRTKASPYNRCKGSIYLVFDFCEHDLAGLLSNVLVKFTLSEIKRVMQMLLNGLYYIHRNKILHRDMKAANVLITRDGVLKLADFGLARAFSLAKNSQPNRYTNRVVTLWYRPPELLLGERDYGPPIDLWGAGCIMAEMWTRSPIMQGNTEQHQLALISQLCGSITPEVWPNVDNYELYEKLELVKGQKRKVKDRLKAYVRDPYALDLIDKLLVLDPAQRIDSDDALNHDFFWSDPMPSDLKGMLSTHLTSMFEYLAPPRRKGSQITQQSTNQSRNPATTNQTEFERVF
T1 sequence (O60563 whole entry partner): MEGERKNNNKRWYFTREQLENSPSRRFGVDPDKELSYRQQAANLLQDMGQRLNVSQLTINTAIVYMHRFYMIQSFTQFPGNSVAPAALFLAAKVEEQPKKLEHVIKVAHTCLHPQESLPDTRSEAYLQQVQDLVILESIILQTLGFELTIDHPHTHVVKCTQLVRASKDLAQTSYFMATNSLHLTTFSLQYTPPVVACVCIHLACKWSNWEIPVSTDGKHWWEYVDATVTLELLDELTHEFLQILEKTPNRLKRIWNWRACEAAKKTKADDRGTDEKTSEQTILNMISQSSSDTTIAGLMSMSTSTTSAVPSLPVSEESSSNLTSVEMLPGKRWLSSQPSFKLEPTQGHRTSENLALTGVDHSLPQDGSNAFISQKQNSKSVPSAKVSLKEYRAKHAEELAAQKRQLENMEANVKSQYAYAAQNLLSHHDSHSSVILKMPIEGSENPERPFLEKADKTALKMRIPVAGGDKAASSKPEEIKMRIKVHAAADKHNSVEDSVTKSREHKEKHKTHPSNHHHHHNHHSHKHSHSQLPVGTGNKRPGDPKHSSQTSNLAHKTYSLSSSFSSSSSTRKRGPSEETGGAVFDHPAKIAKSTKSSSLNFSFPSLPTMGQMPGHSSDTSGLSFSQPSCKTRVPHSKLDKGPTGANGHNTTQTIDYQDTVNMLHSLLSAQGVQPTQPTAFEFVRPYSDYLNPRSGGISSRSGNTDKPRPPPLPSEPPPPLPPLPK

On to `CS(=N)(=O)Cc1cc2cc(c1)OCCCCOc1cc(ccc1F)-c1nc(ncc1F)N2` (racemic) [Example 4, (rac)-3,20-difluoro-10-[(S-methylsulfonimidoyl)methyl]-13,18-dioxa-5,7,25-triazatetracyclo[17.3.1.1^2,6.1^8,12]pentacosa-1(23),2(25),3,5,8(24),9,11,19,21-nonaene], for which the residence time in assay [1] (1/koff, * = arithmetic means, read-out: Target residence time) was found to be 25 min. For the same compound, the Kd in assay [1] (* = arithmetic means of more than one value, read-out: Equilibrium dissociation constant KD) was determined as 1.2 nM. For the same compound, the koff in assay [1] (* = arithmetic means, < = below what is resolvable, read-out: Dissociation rate constant koff) was 0.00067 s⁻¹. For the same compound, the IC50 in the assay with HeLa-MaTu-ADR cells amounted to 140 nM.

Source of the values: patent US11254690B2, “PTEFb inhibiting macrocyclic compounds” (BAYER AKTIENGESELLSCHAFT, priority 2017, dated 2022).
